Where a name gives a salt, the structure may show the parent alone.
These molecules were tested against T1, EHMT2 (Homo sapiens, UniProt Q96KQ7) (assay: MDA-MB-231 H3K9me2 in-cell Western assay (EHMT2 ICW)). Details: Table II; MDA-MB-231 H3K9me2 in-cell Western; read-out: EHMT2 ICW (IC50 μM).
T1 construct: host or cells: MDA-MB-231
T1 sequence (Q96KQ7 1-1210): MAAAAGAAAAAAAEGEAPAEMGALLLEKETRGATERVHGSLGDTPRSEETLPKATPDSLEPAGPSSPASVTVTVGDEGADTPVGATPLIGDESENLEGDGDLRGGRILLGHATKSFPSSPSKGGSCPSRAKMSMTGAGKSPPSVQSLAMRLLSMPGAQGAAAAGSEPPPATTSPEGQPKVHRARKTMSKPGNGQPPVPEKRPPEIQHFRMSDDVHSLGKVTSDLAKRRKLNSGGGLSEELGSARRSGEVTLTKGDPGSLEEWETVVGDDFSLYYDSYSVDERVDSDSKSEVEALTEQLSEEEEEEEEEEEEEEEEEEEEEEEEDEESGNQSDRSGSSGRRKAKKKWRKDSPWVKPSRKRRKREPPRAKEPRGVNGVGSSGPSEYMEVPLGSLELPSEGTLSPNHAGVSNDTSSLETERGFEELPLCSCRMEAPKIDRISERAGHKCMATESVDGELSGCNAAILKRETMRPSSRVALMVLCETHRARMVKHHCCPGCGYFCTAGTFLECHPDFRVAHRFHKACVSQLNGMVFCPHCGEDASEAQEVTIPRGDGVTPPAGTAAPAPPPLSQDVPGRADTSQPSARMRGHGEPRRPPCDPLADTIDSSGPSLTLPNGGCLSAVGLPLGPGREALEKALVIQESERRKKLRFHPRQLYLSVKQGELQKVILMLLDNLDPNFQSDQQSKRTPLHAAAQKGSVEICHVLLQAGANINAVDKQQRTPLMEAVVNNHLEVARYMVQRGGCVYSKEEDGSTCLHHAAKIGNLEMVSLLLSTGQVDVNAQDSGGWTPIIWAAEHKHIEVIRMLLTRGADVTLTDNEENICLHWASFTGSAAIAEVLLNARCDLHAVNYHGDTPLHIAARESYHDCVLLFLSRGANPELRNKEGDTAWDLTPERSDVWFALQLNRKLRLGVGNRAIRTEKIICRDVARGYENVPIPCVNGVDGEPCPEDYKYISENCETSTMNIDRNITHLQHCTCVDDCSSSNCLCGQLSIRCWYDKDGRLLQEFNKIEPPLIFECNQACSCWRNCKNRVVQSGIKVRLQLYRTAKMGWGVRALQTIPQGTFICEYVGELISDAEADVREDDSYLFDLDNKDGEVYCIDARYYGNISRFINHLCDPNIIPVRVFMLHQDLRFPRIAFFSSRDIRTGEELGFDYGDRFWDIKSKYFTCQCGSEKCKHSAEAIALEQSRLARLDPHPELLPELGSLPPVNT
Type: cell-based
Excerpt: RPMI/Glutamax medium, Penicillin-Streptomycin, Heat Inactivated Fetal Bovine Serum, and D-PBS were purchased from Life Technologies (Grand Island, N.Y., USA). Odyssey blocking buffer, 800CW goat anti-mouse IgG (H+L) antibody, and Licor Odyssey Infrared Scanner were purchased from Licor Biosciences, Lincoln, Nebr., USA. […] 16% Paraformaldehyde was purchased from Electron Microscopy Sciences, Hatfield, Pa., USA).MDA-MB-231 cells were maintained in complete growth medium (RPMI supplemented with 10% v/v heat inactivated fetal bovine serum) and cultured at 37° C. under 5% CO2. UNC0638 was purchased from Sigma-Aldrich (St. Louis, Mo., USA).
Compound (100 nL) was added directly to 384-well cell plate. MDA-MB-231 cells (ATCC) were seeded in assay medium (RPMI/Glutamax supplemented with 10% v/v heat inactivated fetal bovine serum and 1% Penicillin/Streptomycin, Life Technologies) at a concentration of 3,000 cells per well to a Poly-D-Lysine coated 384-well cell culture plate with 50 μL per well. […] Plates were incubated at room temperature for 30 minutes and then incubated at 37° C., 5% CO2 for additional 48 hours. After the incubation, 50 μL per well of 8% paraformaldehyde (Electron Microscopy Sciences) in PBS was added to the plates and incubated at room temperature for 20 minutes. […] Next, 60 μL per well of Odyssey blocking buffer (Licor Biosciences) was added to each plate and incubated for 1 hour at room temperature. Blocking buffer was removed and 20 μL of monoclonal primary antibody α-H3K9me2 (Abcam) diluted 1:800 in Odyssey buffer with 0.1% Tween 20 (v/v) were added and plates were incubated overnight (16 hours) at 4° C. Plates were washed 5 times with 100 μL per well of wash buffer. Next 20 μL per well of secondary antibody was added (1:500 800CW donkey anti-mouse IgG (H+L) antibody (Licor Biosciences), 1:1000 DRAQ5 (Cell Signaling Technology) in Odyssey buffer with 0.1% Tween 20 (v/v)) and incubated for 1 hour at room temperature. The plates were washed 5 times with 100 μL per well wash buffer then 2 times with 100 μL per well of water. Plates were allowed to dry at room temperature then imaged on a Licor Odyssey Infrared Scanner (Licor Biosciences) which measured integrated intensity at 700 nm and 800 nm wavelengths. Both 700 and 800 channels were scanned.
First, the ratio for each well was determined by:
The average of the ratio values for each well was calculated and used to determine the percent inhibition for each test well in the plate. Control compound was serially diluted three-fold in DMSO for a total of 10 test concentrations beginning at 1 μM. Percent inhibition was calculated as: […]
IC50 curves were generated using triplicate wells per concentration of compound. […] IC50 values were calculated using a non-linear regression (variable slope-four parameter fit model) with by the following formula: […]

| Structure (SMILES) | IC50 [µM] |
| --- | --- |
| COc1ccc(Nc2nccc(NC3CCS(=O)(=O)CC3)n2)cc1OCCCN1CCCC1 [Compound 152] | > 10 |
| COc1ccc(Nc2nccc(NCc3ccc4[nH]ncc4c3)n2)cc1OCCCN1CCCC1 [Compound 164] | > 10 |
| COc1ccc(Nc2nccc(C)n2)cc1OCCCN1CCCC1 [Compound 174] | > 10 |
| COc1ccc(Nc2nccc(-c3c(C)n[nH]c3C)n2)cc1OCCCN1CCCC1 [Compound 129] | > 10 |
| COc1ccc(Nc2nccc(N3CCNc4ccccc4C3)n2)cc1OCCCN1CCCC1 [Compound 154] | > 10 |
| COc1ccc(Nc2nccc(N(C)C)n2)cc1OCCCN1CCCC1 [Compound 171] | 1 to 10 |
| CNc1nc(Nc2ccc(OC)c(OCCCN3CCCC3)c2)ncc1F [Compound 187] | 1 to 10 |
| COc1ccc(Nc2nccc(N3CCCNC(=O)C3)n2)cc1OCCCN1CCCC1 [Compound 133] | > 10 |
| COc1ccc(Nc2nccc(N(C)Cc3ccccn3)n2)cc1OCCCN1CCCC1 [Compound 136] | > 10 |
| COc1ccc(Nc2nccc(-c3c(C)noc3C)n2)cc1OCCCN1CCCC1 [Compound 130] | > 10 |
| COc1ccc(Nc2nccc(N(C)CC3CCOCC3)n2)cc1OCCCN1CCCC1 [Compound 146] | 1 to 10 |
| COc1ccc(Nc2nccc(N3CCN(c4ccccn4)CC3)n2)cc1OCCCN1CCCC1 [Compound 168] | 1 to 10 |
| COc1ccc(Nc2nccc(CNC(C)=O)n2)cc1OCCCN1CCCC1 [Compound 144] | > 10 |
| COc1ccc(Nc2nccc(-c3c[nH]nc3C)n2)cc1OCCCN1CCCC1 [Compound 131] | > 10 |
| COc1ccc(Nc2nccc(NCC3CCNCC3)n2)cc1OCC(O)CN1CCCC1 (stereo not drawn) [Compound 15, 1-(2-methoxy-5-((4-((piperidin-4-ylmethyl)amino)pyrimidin-2-yl)amino)phenoxy)-3-(pyrrolidin-1-yl)propan-2-ol] | > 10 |
| CNC(=O)c1cnc(Nc2ccc(OC)c(OCCCN3CCCC3)c2)nc1 [Compound 9, 2-((4-methoxy-3-(3-(pyrrolidin-1-yl)propoxy)phenyl)amino)-N-methylpyrimidine-5-carboxamide] | > 10 |
| COc1ccc(Nc2nccc(NCC3CCOCC3)n2)cc1OCCN1CCOCC1 [Compound 204] | > 10 |
| COc1ccc(Nc2cc(CNC3CCNCC3)n(C)n2)cc1OCCCN1CCCC1 [Compound 126] | > 10 |
| COc1ccc(Nc2nccc(-n3cc(C)cn3)n2)cc1OCCCN1CCCC1 [Compound 180] | > 10 |
| COc1ccc(Nc2nccc(N3CCc4cn[nH]c4C3)n2)cc1OCCCN1CCCC1 [Compound 155] | > 10 |
| COc1ccc(Nc2nccc(NCCC3CCOCC3)n2)cc1OCCCN1CCCC1 [Compound 178] | 0.1 to 1 |
| COc1ccc(Nc2nccc(NC3COC3)n2)cc1OCCCN1CCCC1 [Compound 137] | > 10 |

The remaining lines, values ahead:

| IC50 [µM] | Structure (SMILES) |
| --- | --- |
| > 10 | COc1ccc(Nc2cc(N(C)CC3CCN(C(C)=O)CC3)ccn2)cc1OCCCN1CCCC1 [Compound 163] |
| > 10 | COc1cnc(Nc2cc(NCC3CCN(C(C)=O)CC3)ccn2)cc1OCCCN1CCCC1 [Compound 182] |
| > 10 | COc1ccc(Nc2nccc(NCC3CCN(C(C)=O)CC3)n2)cc1OCCC(=O)N1CCCC1 [Compound 166] |
| > 10 | COc1ccc(Nc2cc(OCC3CCN(C(C)=O)CC3)ccn2)cc1OCCCN1CCCC1 [Compound 173] |
| > 10 | COc1ccc(Nc2nccc(OCC3CCN(C(C)=O)CC3)n2)cc1OCCCN1CCCC1 [Compound 14, 1-(4-(((2-((4-methoxy-3-(3-(pyrrolidin-1-yl)propoxy)phenyl)amino)pyrimidin-4-yl)oxy)methyl)piperidin-1-yl)ethan-1-one] |
| > 10 | COc1ccc(Nc2nccc(N3CCC(O)CC3)n2)cc1OCCCN1CCCC1 [Compound 148] |
| > 10 | COc1ccc(N(C)c2nccc(NCC3CCN(C(C)=O)CC3)n2)cc1OCCCN1CCCC1 [Compound 158] |
| 1 to 10 | COc1ccc(Nc2nccc(NC3CN(C(C)=O)C3)n2)cc1OCCCN1CCCC1 [Compound 192] |
| 1 to 10 | COc1ccc(Nc2ccnc(NCC3CCNCC3)n2)cc1OCCCN1CCCC1 [Compound 7, 4-N-[4-methoxy-3-[3-(pyrrolidin-1-yl)propoxy]phenyl]-2-N-(piperidin-4-ylmethyl)pyrimidine-2,4-diamine hydrochloride] |
| 1 to 10 | COc1ccc(Nc2nccc(NCC3CCN(C(C)=O)CC3)n2)cc1OC(C)CCN1CCCC1 (stereo not drawn) [Compound 195] |
| > 10 | COc1ccc(Nc2nccc(N3CCC(C(C)(C)O)CC3)n2)cc1OCCCN1CCCC1 [Compound 147] |

Reference: US20210198277A1, “AMINE-SUBSTITUTED ARYL OR HETEROARYL COMPOUNDS” (Epizyme, Inc., priority 2016, published 2021)
